Ends that are not written are not given here.
Legend:
[1] = test system: mouse cornea; assay: In vivo model of corneal wound healing (corneal epithelial abrasion)
Experimental: The in vivo model of wound healing was carried out using a disposable biopsy punch (2 mm, Miltex, York, Pa.) to demarcate the mouse cornea and a 0.5 mm burr using the AlgerBrush II (The Alger Company, Inc., Lago Vista, Tex.) to remove the corneal epithelium. The corneal abrasions were treated at 0 and 16 hours with peptide 95-122 (10^−5 M), peptide 120-146WH (10^−6 M and 10^−8M), peptide 120-146WR ((10^−6 M and 10^−8M), or vehicle control (0.9% sodium chloride, pH 5.5, Baxter, Deerfield, Ill.). Corneal abrasions were visualized using sterile fluorescein sodium ophthalmic strips USP (Fluorets®, Chauvin Laboratory, Aubenas, France) dampened with sterile PBS. Images were taken at 0, 16, and 24 hours immediately following fluorescein staining.
Mice were anesthetized using ketamine (100 mg/kg; Bionichepharma, LLC., St. Lake Forrest, Ill.) and xylazine ([…]; Rompun; Bayer Corp., Shawnee Mission, Kans.), and the right cornea was wounded as follows. A disposable biopsy punch (2 mm, Miltex, York, Pa.) was used to demarcate the mouse cornea. The corneal epithelium was carefully removed within the 2 mm demarcated area with a 0.5 mm burr using the AlgerBrush II (The Alger Company, Inc., Lago Vista, Tex.). The corneal abrasions were treated at 0 and 16 hours with HB-EGF (250 ng/ml), rCAP37 (250 ng/ml), or vehicle control (0.9% sodium chloride, pH 5.5, Baxter, Deerfield, Ill.). Corneal abrasions were visualized using sterile fluorescein sodium ophthalmic strips USP (FLUORETS®, Chauvin Laboratory, Aubenas, France) dampened with sterile PBS. Images were taken at 0, 16, 24, and 48 hours immediately following fluorescein staining using a surgical microscope equipped with a camera (Carl Zeiss OPMI VISU 140, Carl Zeiss Surgical, Inc., Oberkochen, Germany). The areas of the open wound were quantitated using ImageJ software (US National Institutes of Health), and the results were reported as the percentage of wound closure.
Whole mouse eyes were collected for histology at 0, 6, 16, 24, and 48 hours post wounding and were immediately placed in Prefer fixative (Anatech LTD., Battle Creek, Mich.) for 20 minutes before being transferred to 70% ethanol. Tissues were paraffin-embedded and cut at a thickness of 5 μm, mounted on SUPERFROSTPLUS® slides (Statlab Medical Products, Lewisville, Tex.), and subsequently deparaffinized, rehydrated, and washed in deionized water. Sections were stained with hematoxylin (Leica Microsystems, Buffalo Grove, Ill.) and rinsed twice in deionized water before being washed in Blue Buffer (Leica Microsystems). The sections were finally washed in deionized water and 95% ethanol prior to being counterstained with eosin (Leica Microsystems). Sections were dehydrated in ethanol and cleared in xylene.

[2] = test system: Acinetobacter baumannii ATCC® BAA-747™; assay: In vitro bactericidal assay (CFU remaining, log reduction); format: cell-based; conditions: for reduction of CFU/ml / bactericidal activity against Acinetobacter baumannii: 60 minutes; for reduction of CFU/ml: highest peptide concentrations (25 μM); for bactericidal activity against Acinetobacter baumannii: peptides up to 25 μM, gentamicin 4 μg/ml
Experimental: The three peptide compounds BCC01-5RMP (SEQ ID NO:21), BCC02-5RMP (SEQ ID NO:22), and BCC03-5RMP (SEQ ID NO:23) were assayed for in vitro bactericidal activity against Pseudomonas aeruginosa, Escherichia coli, Salmonella typhimurium, and Acinetobacter baumannii. The starting inoculum for all experiments was 1×10^6 colony forming units (CFU)/ml. The CFU remaining at the end of 60 to 180 minute incubation was determined, and the data plotted as a log reduction in CFU/ml.
For FIGS. 10-13, in vitro bactericidal assays were performed using a starting inoculum of 1×10^6 CFU/ml of the bacterial suspension. The CFU remaining at the end of the 60-180 minute incubation was determined, and the data was plotted as log reduction in CFU/ml.
In particular, each of the test peptides (CAP37 peptides 120-146WR, 120-146WH, and 95-122 (SEQ ID NOs: 30, 31, and 26, respectively)) was used at 25, 12.5, 6.25, and 3.12 μM. Gentamicin was used at 4 μg/ml. 1×10^6/ml Acinetobacter baumannii ATCC® BAA-747″ or Pseudomonas aeruginosa ATCC® 27853™ (American Type Culture Collection, Manassas, Va.) were incubated with the peptides, negative buffer control (tryptone saline), and positive control gentamicin at pH 5.5 or 7.2. A 60 minute incubation was used for Acinetobacter baumannii ATCC® BAA747™, while a 180 minute incubation was used for Pseudomonas aeruginosa ATCC® 27853™. 50 μl aliquots were plated out on agar plates and incubated overnight. Colony forming units were counted after overnight incubation and CFU/ml calculated.

[3] = test system: swine skin; assay: Swine full thickness excisional dermal wound model; format: in vivo; conditions: for Mean Wound Healing (%): topical 3 mg/ml, 0.20 ml per wound daily; for histology: epidermal resurfacing and maturation vs saline control: day 14 post-wounding; for dermal wound healing vs saline: topically at 3 mg/ml, over 14 days; for Histopathology Results, Mean Angiogenesis / Histopathology Results, Mean Epithelization / Histopathology Results, Mean Granulation / Histopathology Results, Mean Inflammation: wounds harvested day 14, 3 mg/ml topical
Experimental: In this Example, peptide compounds of the presently disclosed and claimed inventive concept(s) were evaluated as to their activity on the dermal wound healing process in a clinically relevant swine full thickness excisional wound model. Three different peptide formulations (Group B, Peptide 95-122 (SEQ ID NO:26); Group C, Peptide 120-146WH (SEQ ID NO:31); and Group D, Peptide 120-146QH-5RMP (SEQ ID NO:33)) were each evaluated at the same concentration (3 mg/ml). Sterile saline served as the control (Group A).
Full thickness excisional wounds were induced on the dorsum of swine (N=3) using a 1.0 cm biopsy punch. Treatments were administered (0.20 ml) to each wound (N=6 wounds per group), and the wounds were dressed with standard occlusive dressing ([…]™, 3M Corporation, St. Paul, Minn.). Treatments were reapplied daily and dressings changed. Clinical wound healing observations and wound area (2 mm) measurements were performed on days 0, 3, 5, 7, 10, and 14 post-wounding. Wound area (2 mm) data were expressed as percentage (%) of wound healing. Animals were terminated on day 14 with wounds harvested and processed for histological evaluation. […] All peptide formulation treatment groups healed faster with greater rate of closure and re-epithelialization over time, as compared to the saline control (Group A).

Sequence: GTRCQVAGWGSWHSGGRLSRFPRFVNV [Peptide 120-146WH]
- amount of corneal wound healing vs vehicle-treated ([1]; 10^−8M or 10^−6M at 0 and 16 hours, closure at 16 and 24 hours): significantly greater
- activity against A. baumannii ([2]; 25 μM): highly active
- reduction of CFU/ml ([2]; pH 5.5): ~4 logs
- reduction of CFU/ml ([2]; pH 7.2): ~5.5 logs
- Mean Wound Healing (%) ([3]; Day 0): 0.0%
- Mean Wound Healing (%) ([3]; Day 3): 22.1%
- Mean Wound Healing (%) ([3]; Day 5): 35.9%
- Mean Wound Healing (%) ([3]; Day 7): 59.7%
- Mean Wound Healing (%) ([3]; Day 10): 93.5%
- Mean Wound Healing (%) ([3]; Day 14): 97.5%
- histology: epidermal resurfacing and maturation vs saline control [3]: greater extent of epidermal resurfacing and maturation of the epidermis
- dermal wound healing vs saline [3]: accelerate dermal wound healing
- Histopathology Results, Mean Angiogenesis [3]: 1.7
- Histopathology Results, Mean Epithelization [3]: 3.7
- Histopathology Results, Mean Granulation [3]: 4.0
- Histopathology Results, Mean Inflammation [3]: 0.5

Sequence: LDREANLTSSVTILPLPLQNATVEAGTR (listed as Homo sapiens) [Peptide 95-122]
- corneal wound healing (wound closure at 16 and 24 hours) vs vehicle ([1]; 10^−5 M at 0 and 16 hours): promotes corneal wound healing
- bactericidal activity against Acinetobacter baumannii ([2]; pH 5.5): not active
- bactericidal activity against Acinetobacter baumannii ([2]; pH 7.2): not active
- Mean Wound Healing (%) ([3]; Day 0): 0.0%
- Mean Wound Healing (%) ([3]; Day 14): 100.0%
- histology: epidermal resurfacing and maturation vs saline control [3]: greater extent of epidermal resurfacing and maturation of the epidermis
- dermal wound healing vs saline [3]: accelerate dermal wound healing
- Histopathology Results, Mean Angiogenesis [3]: 2.3
- Histopathology Results, Mean Epithelization [3]: 4.0
- Histopathology Results, Mean Granulation [3]: 4.0
- Histopathology Results, Mean Inflammation [3]: 0.5

— US9603896B2, “Peptide compounds and methods of production and use thereof” (priority 2012, dated 2017)
